The test system of this assay is P388 leukemia ip, CD2F1 mice, survival T/C. Description: NCI In Vivo Anticancer Drug Screen. Data for tumor model P388 Leukemia (intraperitoneal) in CD2F1 (CDF1) mice. The settings on record: endpoint: median survival time, higher = longer survival. The method in brief:
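Mice carrying the transplanted tumor received test compound or vehicle. Survival was recorded in each group, and the value is the treated-group measurement divided by that of the vehicle-treated control group.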

The mark [1] stands for this setting: dose: 50.0 mg/kg/injection, schedule: Q01DX009 (ip), vehicle: Klucel (hydroxypropylcellulose) (HPC).
Setting [2] is: dose: 100.0 mg/kg/injection, schedule: Q01DX009 (ip), vehicle: Klucel (hydroxypropylcellulose) (HPC).
Where [3] appears, read: dose: 50.0 mg/kg/injection, schedule: Q01DX009 (ip), vehicle: saline with Tween-80.
Where [4] appears, read: dose: 100.0 mg/kg/injection, schedule: Q01DX009 (ip), vehicle: saline with Tween-80.
[5] abbreviates: dose: 200.0 mg/kg/injection, schedule: Q01DX009 (ip), vehicle: saline with Tween-80.
The mark [6] stands for this setting: dose: 50.0 mg/kg/injection, schedule: Q01DX005 (ip), vehicle: saline with Tween-80.
Setting [7] is: dose: 100.0 mg/kg/injection, schedule: Q01DX005 (ip), vehicle: saline with Tween-80.
The mark [8] stands for this setting: dose: 200.0 mg/kg/injection, schedule: Q01DX005 (ip), vehicle: saline with Tween-80.
Setting [9] is: dose: 60.0 mg/kg/injection, schedule: Q01DX005 (ip), vehicle: saline with Tween-80.
[10] abbreviates: dose: 25.0 mg/kg/injection, schedule: Q01DX009 (ip), vehicle: saline with Tween-80.
Where [11] appears, read: dose: 100.0 mg/kg/injection, schedule: Q01DX001 (ip), vehicle: saline with Tween-80.
Where [12] appears, read: dose: 200.0 mg/kg/injection, schedule: Q01DX001 (ip), vehicle: saline with Tween-80.

Several values for one entry are separate records, joined by “and”; a condition that tells them apart may be missing. Identical values can stand only once. Toxic doses and inconclusive results are not listed.

With `CCCC(O)/C=C/C=C/C=C/C#CC#CCCCO` (configuration not stated), the T/C by setting is: (dose: 0.25 mg/kg/injection, schedule: Q01DX005 (ip), vehicle: DMSO) 105 % of control; (dose: 1.0 mg/kg/injection, schedule: Q01DX005 (ip), vehicle: DMSO) 101 % of control and 110 % of control; (dose: 2.0 mg/kg/injection, schedule: Q01DX005 (ip), vehicle: DMSO) 124 % of control and 96 % of control; (dose: 4.0 mg/kg/injection, schedule: Q01DX005 (ip), vehicle: DMSO) 104 % of control; (dose: 8.0 mg/kg/injection, schedule: Q01DX005 (ip), vehicle: DMSO) 105 % of control.

In the case of `Nc1ccc2c(c1)CC1CC(=O)NN=C21` (configuration not stated), the T/C is, setting by setting: (dose: 60.0 mg/kg/injection, schedule: Q01DX005 (ip), vehicle: saline) 98 % of control; (dose: 120.0 mg/kg/injection, schedule: Q01DX005 (ip), vehicle: saline) 92 % of control; (dose: 240.0 mg/kg/injection, schedule: Q01DX005 (ip), vehicle: saline) 98 % of control.

Regarding `CC(=O)NCCSC(NC(=O)Cc1ccccc1)C(=O)O` (configuration not stated), the T/C under setting [1] is 94 % of control; the T/C under setting [2] was 97 % of control; the T/C (dose: 200.0 mg/kg/injection, schedule: Q01DX009 (ip), vehicle: Klucel (hydroxypropylcellulose) (HPC)) was 100 % of control.

`O=C(O)c1cc(=O)n(CCCCCCn2c(=O)cc(C(=O)O)[nH]c2=O)c(=O)[nH]1`: the T/C by setting is: under setting [3], 98 % of control; under setting [4], 104 % of control; under setting [5], 111 % of control.

As to `Nc1c(Cl)sc2ccccc2c1=O`, the T/C is, setting by setting: under setting [6], 91 % of control; under setting [7], 91 % of control; under setting [8], 104 % of control.

Regarding `CC(C)CCN=Cc1ccccc1O.CC(C)CCN=Cc1ccccc1O.[Zn]`, the T/C runs as follows: under setting [1], 98 % of control; under setting [2], 104 % of control.

`CC1(C)N=C(N)N=C(N)N1c1ccc(F)c(C(F)(F)F)c1`: the T/C is 118 % of control (dose: 1.0 mg/kg/injection, schedule: Q01DX009 (ip), vehicle: saline); 119 % of control (dose: 4.0 mg/kg/injection, schedule: Q08DX002 (ip), vehicle: saline); 170 % of control (dose: 8.0 mg/kg/injection, schedule: Q01DX009 (ip), vehicle: saline); 120 % of control (dose: 8.0 mg/kg/injection, schedule: Q08DX002 (ip), vehicle: saline); 181 % of control (dose: 16.0 mg/kg/injection, schedule: Q01DX009 (ip), vehicle: saline); 121 % of control (dose: 32.0 mg/kg/injection, schedule: Q01DX001 (ip), vehicle: saline). For the same compound, the T/C was 190 % of control (dose: 32.0 mg/kg/injection, schedule: Q01DX009 (ip), vehicle: saline); 121 % of control (dose: 64.0 mg/kg/injection, schedule: Q01DX001 (ip), vehicle: saline); 90 % of control (dose: 64.0 mg/kg/injection, schedule: Q01DX009 (ip), vehicle: saline); 122 % of control (dose: 128.0 mg/kg/injection, schedule: Q01DX001 (ip), vehicle: saline).

`O=C1CS(=O)(=O)C(c2ccccc2F)N1N1C(=O)CS(=O)(=O)C1c1ccccc1F` (configuration not stated): the T/C is, setting by setting: (dose: 15.0 mg/kg/injection, schedule: Q01DX005 (ip), vehicle: saline with Tween-80) 98 % of control and 87 % of control; (dose: 30.0 mg/kg/injection, schedule: Q01DX005 (ip), vehicle: saline with Tween-80) 89 % of control; under setting [9], 87 % of control and 89 % of control.

In the case of `CN1CCC1=O`, the T/C (dose: 50.0 mg/kg/injection, schedule: Q01DX009 (ip), vehicle: saline) was 105 % of control; the T/C (dose: 100.0 mg/kg/injection, schedule: Q01DX009 (ip), vehicle: saline) was 110 % of control; the T/C (dose: 200.0 mg/kg/injection, schedule: Q01DX009 (ip), vehicle: saline) was 97 % of control.

For the compound `Nc1nc(N)c2nc3c(nc2n1)C(=O)N(c1ccc(C(=O)O)cc1)C3`, the T/C runs as follows: (dose: 6.25 mg/kg/injection, schedule: Q01DX009 (ip), vehicle: saline with Tween-80) 106 % of control; (dose: 12.5 mg/kg/injection, schedule: Q01DX009 (ip), vehicle: saline with Tween-80) 115 % of control; under setting [10], 117 % of control; under setting [3], 108 % of control.

`CC(C)N(C(=O)COc1ccc(Cl)cc1Cl)c1ccccc1`: the T/C runs as follows: (dose: 100.0 mg/kg/injection, schedule: Q04DX003 (ip), vehicle: saline with Tween-80) 104 % of control; (dose: 200.0 mg/kg/injection, schedule: Q04DX003 (ip), vehicle: saline with Tween-80) 100 % of control; (dose: 400.0 mg/kg/injection, schedule: Q04DX003 (ip), vehicle: saline with Tween-80) 100 % of control.

On to `Cc1cc(NC(=S)SCc2ccc(Cl)cc2)ccc1F`, for which the T/C is, setting by setting: (dose: 50.0 mg/kg/injection, schedule: Q01DX009 (ip), vehicle: suspension in saline) 109 % of control; (dose: 100.0 mg/kg/injection, schedule: Q01DX009 (ip), vehicle: suspension in saline) 100 % of control; (dose: 200.0 mg/kg/injection, schedule: Q01DX009 (ip), vehicle: suspension in saline) 94 % of control.

On to `CS(=O)(=O)OCCCl`, for which the T/C is, setting by setting: under setting [10], 105 % of control and 108 % of control; under setting [3], 107 % of control and 112 % of control; (dose: 75.0 mg/kg/injection, schedule: Q01DX005 (ip), vehicle: saline with Tween-80) 113 % of control and 86 % of control; (dose: 75.0 mg/kg/injection, schedule: Q01DX009 (ip), vehicle: saline with Tween-80) 102 % of control; under setting [11], 100 % of control; under setting [7], 114 % of control and 94 % of control. The T/C by setting is: under setting [4], 111 % of control; under setting [12], 110 % of control.

Consider `O=C1CC2C(O)OC(O)C(C1)N2C(=O)OCC(Cl)(Cl)Cl` (configuration not stated), for which the T/C by setting is: (dose: 6.25 mg/kg/injection, schedule: Q01DX005 (ip), vehicle: Klucel (hydroxypropylcellulose) (HPC)) 106 % of control; (dose: 12.5 mg/kg/injection, schedule: Q01DX005 (ip), vehicle: Klucel (hydroxypropylcellulose) (HPC)) 106 % of control; (dose: 25.0 mg/kg/injection, schedule: Q01DX005 (ip), vehicle: Klucel (hydroxypropylcellulose) (HPC)) 114 % of control.

Regarding `CC(NC(=O)OC(C)(C)C)C(=O)ON1C(=O)CCC1=O` (configuration not stated), the T/C is 108 % of control under setting [6], 114 % of control under setting [7] and 104 % of control under setting [8].

As for `N#CC(NCCNC(C#N)c1ccccc1)c1ccccc1` (configuration not stated), the T/C under setting [9] was 96 % of control; the T/C (dose: 120.0 mg/kg/injection, schedule: Q01DX005 (ip), vehicle: saline with Tween-80) was 90 % of control; the T/C (dose: 240.0 mg/kg/injection, schedule: Q01DX005 (ip), vehicle: saline with Tween-80) is 88 % of control.

As for `C/C=C/C[P+](C)(c1ccccc1)c1ccccc1`, the T/C (dose: 0.75 mg/kg/injection, schedule: Q01DX009 (ip), vehicle: saline) was 104 % of control.

In the case of `CCO/C(C)=C(/C(C)=O)C(=O)NC1CCCCC1`, the T/C by setting is: under setting [4], 95 % of control; under setting [5], 90 % of control; (dose: 400.0 mg/kg/injection, schedule: Q01DX009 (ip), vehicle: saline with Tween-80) 90 % of control.

With `COC(=O)Cn1/c(=N\N=C(/C)c2ccccc2)sc2ccccc21`, the T/C under setting [11] is 102 % of control; the T/C under setting [12] is 99 % of control; the T/C (dose: 400.0 mg/kg/injection, schedule: Q01DX001 (ip), vehicle: saline with Tween-80) is 99 % of control.

`COc1ccc(N2CC[N+](c3ccc(N(C)C)cc3)=C2C2=[N+](c3ccc(N(C)C)cc3)CCN2c2ccc(OC)cc2)cc1`: the T/C (dose: 12.5 mg/kg/injection, schedule: Q01DX009 (ip), vehicle: Klucel (hydroxypropylcellulose) (HPC)) is 91 % of control; the T/C (dose: 25.0 mg/kg/injection, schedule: Q01DX009 (ip), vehicle: Klucel (hydroxypropylcellulose) (HPC)) is 91 % of control; the T/C under setting [1] was 91 % of control.

For the origin of these results see PubChem BioAssay AID330 (DTP/NCI, 2004).
